Assay results as given in US20230364070A1, “PYRROLO[3,2-C]PYRIDIN-4-ONE DERIVATIVES USEFUL IN THE TREATMENT OF CANCER” (Scorpion Therapeutics, Inc., priority 2020, published 2023).

What was measured:
Assay type in all cases: cell-based
[1] = target: T1, Ba/F3 cells with EGFR exon 20 ASV Ins V769_D770 (Homo sapiens, UniProt P00533, INS769ASV); assay: EGFR activity: Ba/F3 cell viability (CellTiter-Glo, 72 h), EGFR exon 20 ASV insertion; conditions: EGFR exon 20 ASV Ins V769_D770, cell viability, read-out: BaF3 ASV IC50
T1 construct: expressed in transfected cells; host or cells: Ba/F3 (murine pro-B cells), retroviral transduction, puromycin selection, IL3-independent pool

Ba/F3 cells with EGFR WT = target: T2, Ba/F3 cells with EGFR WT (Homo sapiens, UniProt P00533); assay: EGFR activity: Ba/F3 cell viability (CellTiter-Glo, 72 h), EGFR WT; conditions: read-out: BaF3 WT IC50
T2 construct: expressed in transfected cells; host or cells: Ba/F3 (murine pro-B cells), retroviral transduction, puromycin selection, maintained with EGF

pEGFR in CUTO14 cells = target: T3, pEGFR in CUTO14 cells (Homo sapiens, UniProt P00533, DUP767-769); assay: Inhibitor activity on EGFR phosphorylation (pEGFR AlphaLISA, 2 h), CUTO14 cells
T3 construct: endogenous in cells; host or cells: CUTO14 cells
Procedure: CUTO14 cells were obtained from Dr. Robert C. Doebele at the University of Colorado.
Shake 350 rpm for 1 hr in the dark • 3.4 Prepare donor mix under low light conditions prior to use. Dispense 5 μL of donor mix to all the wells. Mix well on the shaker, seal and wrap in aluminum foil and incubate 1.5 hrs at room temperature in the dark • 3.5 Transfer 18.5 μL mixture to OptiPlate 384, and read using an Envision.

[2] = target: T4, Ba/F3 cells with EGFR exon 20 NPG Ins D770_N771 (Homo sapiens, UniProt P00533, INS770NPG); assay: EGFR activity: Ba/F3 cell viability (CellTiter-Glo, 72 h), EGFR exon 20 NPG insertion; conditions: EGFR exon 20 NPG Ins D770_N771, cell viability, read-out: BaF3 NPG IC50
T4 construct: expressed in transfected cells; host or cells: Ba/F3 (murine pro-B cells), retroviral transduction, puromycin selection, IL3-independent pool
T4 sequence (P00533 with tags, fused parts or gaps INS770NPG): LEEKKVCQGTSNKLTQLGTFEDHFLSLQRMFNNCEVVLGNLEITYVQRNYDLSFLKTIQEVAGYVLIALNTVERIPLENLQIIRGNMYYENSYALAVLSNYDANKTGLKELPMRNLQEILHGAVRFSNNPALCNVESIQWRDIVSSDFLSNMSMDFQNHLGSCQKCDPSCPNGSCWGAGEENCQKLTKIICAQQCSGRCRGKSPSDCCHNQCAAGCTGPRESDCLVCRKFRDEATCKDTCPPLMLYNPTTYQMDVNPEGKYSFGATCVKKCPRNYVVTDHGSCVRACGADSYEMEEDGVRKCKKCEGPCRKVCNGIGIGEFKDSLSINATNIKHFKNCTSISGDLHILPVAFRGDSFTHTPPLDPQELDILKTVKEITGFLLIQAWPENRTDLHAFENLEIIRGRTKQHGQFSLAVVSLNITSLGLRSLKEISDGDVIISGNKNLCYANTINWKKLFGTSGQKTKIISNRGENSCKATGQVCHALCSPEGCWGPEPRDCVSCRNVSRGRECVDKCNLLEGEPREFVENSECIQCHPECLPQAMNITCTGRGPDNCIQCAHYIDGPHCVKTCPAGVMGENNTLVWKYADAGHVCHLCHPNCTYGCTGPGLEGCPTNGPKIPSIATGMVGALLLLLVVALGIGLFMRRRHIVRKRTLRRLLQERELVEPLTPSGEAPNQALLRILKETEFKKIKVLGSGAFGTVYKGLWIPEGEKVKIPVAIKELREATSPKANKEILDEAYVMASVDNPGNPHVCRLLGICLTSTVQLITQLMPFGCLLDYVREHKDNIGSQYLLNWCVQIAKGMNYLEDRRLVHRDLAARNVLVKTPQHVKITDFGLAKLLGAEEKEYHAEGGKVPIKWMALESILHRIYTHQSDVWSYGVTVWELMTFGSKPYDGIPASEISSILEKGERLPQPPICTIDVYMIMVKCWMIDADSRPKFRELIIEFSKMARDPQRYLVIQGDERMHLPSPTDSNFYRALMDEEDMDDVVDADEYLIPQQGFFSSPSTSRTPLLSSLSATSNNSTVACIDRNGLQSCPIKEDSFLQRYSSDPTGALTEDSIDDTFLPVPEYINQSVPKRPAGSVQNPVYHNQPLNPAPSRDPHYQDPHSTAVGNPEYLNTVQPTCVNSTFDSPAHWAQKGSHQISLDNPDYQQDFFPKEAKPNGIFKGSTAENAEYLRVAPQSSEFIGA

T3 sequence (P00533 with tags, fused parts or gaps DUP767-769): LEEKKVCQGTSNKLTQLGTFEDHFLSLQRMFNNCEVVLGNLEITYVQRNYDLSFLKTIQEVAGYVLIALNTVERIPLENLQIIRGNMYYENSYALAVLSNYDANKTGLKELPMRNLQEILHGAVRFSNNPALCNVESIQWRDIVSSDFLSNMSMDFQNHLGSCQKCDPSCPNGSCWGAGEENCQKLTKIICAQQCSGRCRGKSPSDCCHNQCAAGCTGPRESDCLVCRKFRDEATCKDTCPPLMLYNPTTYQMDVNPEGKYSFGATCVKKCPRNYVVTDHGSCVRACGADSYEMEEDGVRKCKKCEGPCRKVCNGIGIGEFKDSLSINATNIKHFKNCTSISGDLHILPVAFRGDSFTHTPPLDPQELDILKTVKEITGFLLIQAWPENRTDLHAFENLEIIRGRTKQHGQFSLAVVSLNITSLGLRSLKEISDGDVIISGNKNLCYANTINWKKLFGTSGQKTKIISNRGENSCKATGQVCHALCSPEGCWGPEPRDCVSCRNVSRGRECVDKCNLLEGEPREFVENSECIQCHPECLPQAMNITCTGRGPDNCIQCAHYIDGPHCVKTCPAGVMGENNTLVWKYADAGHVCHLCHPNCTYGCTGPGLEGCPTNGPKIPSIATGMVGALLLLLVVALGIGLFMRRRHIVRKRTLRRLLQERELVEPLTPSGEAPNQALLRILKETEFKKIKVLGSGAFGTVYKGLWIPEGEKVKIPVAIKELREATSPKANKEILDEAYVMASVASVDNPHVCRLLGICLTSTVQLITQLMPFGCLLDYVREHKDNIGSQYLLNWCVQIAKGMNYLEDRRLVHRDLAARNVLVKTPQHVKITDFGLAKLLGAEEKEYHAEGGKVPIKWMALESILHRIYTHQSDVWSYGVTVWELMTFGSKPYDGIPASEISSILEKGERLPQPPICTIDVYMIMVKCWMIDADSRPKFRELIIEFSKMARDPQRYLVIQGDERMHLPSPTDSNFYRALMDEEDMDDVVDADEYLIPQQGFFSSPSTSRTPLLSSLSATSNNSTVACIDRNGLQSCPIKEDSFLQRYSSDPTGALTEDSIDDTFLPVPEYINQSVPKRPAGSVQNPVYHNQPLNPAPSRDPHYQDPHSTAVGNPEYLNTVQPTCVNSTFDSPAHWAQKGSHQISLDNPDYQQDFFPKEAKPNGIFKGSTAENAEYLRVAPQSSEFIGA
T1 sequence (P00533 with tags, fused parts or gaps INS769ASV): as the sequence (P00533 with tags, fused parts or gaps DUP767-769) above
T2 sequence (P00533 25-1210): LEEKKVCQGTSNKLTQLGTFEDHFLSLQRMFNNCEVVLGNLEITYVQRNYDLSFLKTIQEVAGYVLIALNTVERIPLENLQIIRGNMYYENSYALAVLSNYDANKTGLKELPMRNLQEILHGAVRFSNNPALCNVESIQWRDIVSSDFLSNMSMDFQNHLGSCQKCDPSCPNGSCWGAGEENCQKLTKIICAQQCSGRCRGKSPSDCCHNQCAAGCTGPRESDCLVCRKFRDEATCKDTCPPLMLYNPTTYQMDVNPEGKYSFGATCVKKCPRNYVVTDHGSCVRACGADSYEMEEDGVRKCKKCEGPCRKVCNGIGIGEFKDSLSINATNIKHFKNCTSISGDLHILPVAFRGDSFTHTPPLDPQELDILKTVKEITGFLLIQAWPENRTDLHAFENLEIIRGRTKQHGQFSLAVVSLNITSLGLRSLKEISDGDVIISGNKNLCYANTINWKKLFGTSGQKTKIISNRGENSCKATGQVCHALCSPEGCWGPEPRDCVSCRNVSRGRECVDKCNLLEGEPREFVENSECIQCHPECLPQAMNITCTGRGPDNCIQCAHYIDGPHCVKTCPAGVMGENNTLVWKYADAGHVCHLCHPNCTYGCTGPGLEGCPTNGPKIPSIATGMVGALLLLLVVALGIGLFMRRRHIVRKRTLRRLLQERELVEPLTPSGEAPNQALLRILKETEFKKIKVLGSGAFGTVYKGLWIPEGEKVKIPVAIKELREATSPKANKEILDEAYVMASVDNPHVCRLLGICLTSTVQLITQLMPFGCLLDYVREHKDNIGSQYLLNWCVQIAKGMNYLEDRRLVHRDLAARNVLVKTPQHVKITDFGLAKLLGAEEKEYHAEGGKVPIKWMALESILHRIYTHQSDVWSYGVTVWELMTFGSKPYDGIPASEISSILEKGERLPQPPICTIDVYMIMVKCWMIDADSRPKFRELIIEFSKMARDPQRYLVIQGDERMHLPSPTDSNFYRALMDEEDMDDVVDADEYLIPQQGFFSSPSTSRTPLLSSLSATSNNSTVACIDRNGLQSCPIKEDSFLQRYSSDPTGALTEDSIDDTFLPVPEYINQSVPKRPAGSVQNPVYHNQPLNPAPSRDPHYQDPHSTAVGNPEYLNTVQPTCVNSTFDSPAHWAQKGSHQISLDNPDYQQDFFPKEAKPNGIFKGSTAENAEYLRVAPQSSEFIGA

Row | Compound | IC50 [1] [nM] | IC50 (Ba/F3 cells with EGFR WT) [nM] | IC50 (pEGFR in CUTO14 cells) [nM] | IC50 [2] [nM]
1 | C=CC(=O)N1[C@@H](C#Cc2cnccc2-c2[nH]c3c(c2Nc2cccc(F)c2OC)C(=O)NCC3)C[C@@H]2C[C@@H]21 [compound 301] | < 100 | 100 to 1000 | < 100 | < 100
2 | C=CC(=O)N1CCC[C@]1(C)C#Cc1cnccc1-c1[nH]c2c(c1Nc1cccc(F)c1CC)C(=O)NCC2 [compound 305] | < 100 | 100 to 1000 | < 100 | < 100
3 | CC#CC(=O)N1CC[C@]1(C)COc1cnccc1-c1[nH]c2c(c1Nc1cccc(F)c1OC)C(=O)NCC2 [compound 307] | < 100 | 100 to 1000 | < 100 | < 100
4 | CC#CC(=O)N1CC[C@]1(C)COc1cnccc1-c1[nH]c2c(c1Nc1cccc(Cl)c1OC)C(=O)NCC2 [compound 308] | < 100 | 100 to 1000 | < 100 | < 100
5 | C=CC(=O)NC1(C#Cc2cnccc2-c2[nH]c3c(c2Nc2cccc(F)c2OC)C(=O)NCC3)CN(C)C1 [compound 336] | 100 to 1000 | > 1000 | 100 to 1000 | 100 to 1000
6 | CC#CC(=O)N1CC[C@@H]1COc1cnccc1-c1[nH]c2c(c1Nc1cc(F)cc(Cl)c1OC)C(=O)NCC2 [compound 346] | < 100 | 100 to 1000 | < 100 | < 100
7 | CC#CC(=O)N1CC[C@@H]1COc1cnccc1-c1[nH]c2c(c1Nc1cc(F)cc(F)c1OC)C(=O)NCC2 [compound 347] | < 100 | 100 to 1000 | < 100 | < 100
8 | CC#CC(=O)N1CC[C@@H]1COc1cnccc1-c1[nH]c2c(c1Nc1cccc(F)c1F)C(=O)NCC2 [compound 350] | < 100 | 100 to 1000 | < 100 | < 100
9 | C=C(F)C(=O)N1CC[C@H]1COc1cnccc1-c1[nH]c2c(c1Nc1cccc(Cl)c1OC)C(=O)NCC2 [compound 363, 3-[(3-chloro-2-methoxyphenyl)amino]-2-(3-{[(2S)-1-(2-fluoroprop-2-enoyl)azetidin-2-yl]methoxy}pyridin-4-yl)-1H,5H,6H,7H-pyrrolo[3,2-c]pyridin-4-one] | – | – | < 100 | –
10 | C=CC(=O)N[C@@H](C)C#Cc1cnccc1-c1[nH]c2c(c1Nc1cccc(F)c1OC)C(=O)NCC2 [compound 375, N-[(2S)-4-(4-{3-[(3-fluoro-2-methoxyphenyl)amino]-4-oxo-1H,5H,6H,7H-pyrrolo[3,2-c]pyridin-2-yl}pyridin-3-yl)but-3-yn-2-yl]prop-2-enamide] | – | – | < 100 | –
11 | C=CC(=O)N[C@@H](C)C#Cc1cnccc1-c1[nH]c2c(c1Nc1cccc(Cl)c1OC)C(=O)NCC2 [compound 376, N-[(2S)-4-(4-{3-[(3-chloro-2-methoxyphenyl)amino]-4-oxo-1H,5H,6H,7H-pyrrolo[3,2-c]pyridin-2-yl}pyridin-3-yl)but-3-yn-2-yl]prop-2-enamide] | – | – | < 100 | –
12 | COc1c(Cl)cccc1Nc1c(-c2ccncc2C#C[C@H]2C[C@@H]3C[C@@H]3N2C(=O)/C=C/CN(C)C)[nH]c2c1C(=O)NCC2 [compound 466, 3-[(3-chloro-2-methoxyphenyl)amino]-2-(3-{2-[(1S,3R,5S)-2-[(2E)-4-(dimethylamino)but-2-enoyl]-2-azabicyclo[3.1.0]hexan-3-yl]ethynyl}pyridin-4-yl)-1H,5H,6H,7H-pyrrolo[3,2-c]pyridin-4-one] | – | – | < 100 | –
13 | C=CC(=O)N1CC(C)(C)[C@H]1COc1cnccc1-c1[nH]c2c(c1Nc1cccc(Cl)c1OC)C(=O)NCC2 [compound 512, 3-[(3-chloro-2-methoxyphenyl)amino]-2-(3-{[(2S)-3,3-dimethyl-1-(prop-2-enoyl)azetidin-2-yl]methoxy}pyridin-4-yl)-1H,5H,6H,7H-pyrrolo[3,2-c]pyridin-4-one] | – | – | < 100 | –
14 | C=CC(=O)N1CC[C@@]1(C)C#Cc1cnccc1-c1[nH]c2c(c1Nc1cccc(Cl)c1OC)C(=O)NCC2 [compound 550, 3-[(3-chloro-2-methoxyphenyl)amino]-2-(3-{2-[(2S)-2-methyl-1-(prop-2-enoyl)azetidin-2-yl]ethynyl}pyridin-4-yl)-1H,5H,6H,7H-pyrrolo[3,2-c]pyridin-4-one] | – | – | > 1000 | –
15 | C=CC(=O)N1CC[C@]1(C)C#Cc1cnccc1-c1[nH]c2c(c1Nc1cccc(Cl)c1OC)C(=O)NCC2 [compound 551, 3-[(3-chloro-2-methoxyphenyl)amino]-2-(3-{2-[(2R)-2-methyl-1-(prop-2-enoyl)azetidin-2-yl]ethynyl}pyridin-4-yl)-1H,5H,6H,7H-pyrrolo[3,2-c]pyridin-4-one] | – | – | > 1000 | –
